In this test the target is T1, HMG-CoA reductase (Homo sapiens, UniProt P04035).
T1 construct: endogenous in cells; host or cells: HepG2 (Korea Cell Line Bank)
T1 sequence (P04035 1-888): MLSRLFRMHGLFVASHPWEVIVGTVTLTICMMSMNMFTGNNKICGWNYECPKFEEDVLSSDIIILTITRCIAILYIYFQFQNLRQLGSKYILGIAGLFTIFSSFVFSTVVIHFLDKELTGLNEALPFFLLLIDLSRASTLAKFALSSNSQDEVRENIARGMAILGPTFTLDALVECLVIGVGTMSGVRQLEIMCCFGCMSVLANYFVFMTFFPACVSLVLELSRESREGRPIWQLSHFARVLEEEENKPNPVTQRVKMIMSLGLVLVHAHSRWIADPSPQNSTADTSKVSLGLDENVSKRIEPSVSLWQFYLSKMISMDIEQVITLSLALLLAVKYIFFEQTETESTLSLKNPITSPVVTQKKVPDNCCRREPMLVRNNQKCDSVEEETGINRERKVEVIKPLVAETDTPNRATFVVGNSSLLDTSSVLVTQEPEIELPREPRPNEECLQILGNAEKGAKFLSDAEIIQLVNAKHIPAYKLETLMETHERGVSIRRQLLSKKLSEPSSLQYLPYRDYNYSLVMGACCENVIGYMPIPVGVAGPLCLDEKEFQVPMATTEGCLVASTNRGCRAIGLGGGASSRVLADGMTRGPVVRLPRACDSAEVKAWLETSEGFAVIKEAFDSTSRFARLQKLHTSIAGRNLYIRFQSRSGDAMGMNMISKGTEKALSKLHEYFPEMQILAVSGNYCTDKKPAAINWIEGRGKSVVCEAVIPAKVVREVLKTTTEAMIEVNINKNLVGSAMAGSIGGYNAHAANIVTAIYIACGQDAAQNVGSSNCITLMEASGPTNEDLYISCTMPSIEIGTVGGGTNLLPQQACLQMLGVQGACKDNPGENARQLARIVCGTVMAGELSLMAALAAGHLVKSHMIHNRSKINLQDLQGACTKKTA
Nature of the test: HMG-CoA reductase (HMGCR) degradation in HepG2 cells by western blotting. The class given is cell-based. The following applies: treated for 18 hours, ratio of HMG-CoA reductase to GAPDH, read-out: DC50. In a few lines:
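Western blot read-out: HMGCR protein probed (1:500, 16 hours at 4° C) alongside GAPDH loading control on 15 μg BCA-normalised RIPA lysates. Lysates came from HepG2 cells (P105–P110) exposed for 18 hours to a 10-point, three-fold series starting at 3 μM.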
(In general: In western blotting, separated proteins are transferred to a membrane and probed.)
By DC50 is commonly meant the midpoint of the concentration-degradation curve. With `Cc1ncsc1-c1ccc(CNC(=O)[C@@H]2C[C@@H](O)CN2C(=O)[C@@H](NC(=O)CCCCCCCNC(=O)O[C@H]2C[C@@H](C)C=C3C=C[C@H](C)[C@H](CC[C@@H]4C[C@@H](O)CC(=O)O4)[C@H]32)C(C)(C)C)cc1` [Compound 158, (1S,3R,7S,8S,8aR)-8-(2-((2R,4R)-4-hydroxy-6-oxotetrahydro-2H-pyran-2-yl)ethyl)-3,7-dimethyl-1,2,3,7,8,8a-hexahydronaphthalen-1-yl (8-(((S)-1-((2S,4R)-4-hydroxy-2-((4-(4-methylthiazol-5-yl)benzyl)carbamoyl)pyrrolidin-1-yl)-3,3-dimethyl-1-oxobutan-2-yl)amino)-8-oxooctyl)carbamate], the DC50 is less than 50 nM.

Regarding `Cc1ncsc1-c1ccc(CNC(=O)[C@@H]2C[C@@H](O)CN2C(=O)[C@@H](NC(=O)CCCCCCCCCCNC(=O)O[C@H]2C[C@@H](C)C=C3C=C[C@H](C)[C@H](CC[C@@H]4C[C@@H](O)CC(=O)O4)[C@H]32)C(C)(C)C)cc1` [Compound 160, (1S,3R,7S,8S,8aR)-8-(2-((2R,4R)-4-hydroxy-6-oxotetrahydro-21H-pyran-2-yl)ethyl)-3,7-dimethyl-1,2,3,7,8,8a-hexahydronaphthalen-1-yl (11-(((S)-1-((2S,4R)-4-hydroxy-2-((4-(4-methylthiazol-5-yl)benzyl)carbamoyl)pyrrolidin-1-yl)-3,3-dimethyl-1-oxobutan-2-yl)amino)-11-oxoundecyl)carbamate], the DC50 was less than 50 nM.

In the case of `Cc1ncsc1-c1ccc(CNC(=O)[C@@H]2C[C@@H](O)CN2C(=O)[C@@H](NC(=O)CCCc2cn(CCCCNC(=O)O[C@H]3C[C@@H](C)C=C4C=C[C@H](C)[C@H](CC[C@@H]5C[C@@H](O)CC(=O)O5)[C@H]43)nn2)C(C)(C)C)cc1` [Compound 161, (1S,3R,7S,8S,8aR)-8-(2-((2R,4R)-4-hydroxy-6-oxotetrahydro-2H-pyran-2-yl)ethyl)-3,7-dimethyl-1,2,3,7,8,8a-hexahydronaphthalen-1-yl (4-(4-(4-(((S)-1-((2S,4R)-4-hydroxy-2-((4-(4-methylthiazol-5-yl)benzyl)carbamoyl)pyrrolidin-1-yl)-3,3-dimethyl-1-oxobutan-2-yl)amino)-4-oxobutyl)-1H-1,2,3-triazol-1-yl)butyl)carbamate], the DC50 was less than 50 nM.

As to `Cc1ncsc1-c1ccc(CNC(=O)[C@@H]2C[C@@H](O)CN2C(=O)[C@@H](NC(=O)CCCN2CCC(CCCNC(=O)O[C@@H]3C[C@H](C)C=C4C=C[C@@H](C)[C@@H](CC[C@H]5C[C@H](O)CC(=O)O5)[C@@H]43)CC2)C(C)(C)C)cc1` [Compound 162, (1R,3S,7R,8R,8aS)-8-(2-((2S,4S)-4-hydroxy-6-oxotetrahydro-2H-pyran-2-yl)ethyl)-3,7-dimethyl-1,2,3,7,8,8a-hexahydronaphthalen-1-yl (3-(1-(4-(((S)-1-((2S,4R)-4-hydroxy-2-((4-(4-methylthiazol-5-yl)benzyl)carbamoyl)pyrrolidin-1-yl)-3,3-dimethyl-1-oxobutan-2-yl)amino)-4-oxobutyl)piperidin-4-yl)propyl)carbamate], the half-maximal degradation concentration (DC50) was less than 50 nM.

As for `Cc1ncsc1-c1ccc(CNC(=O)[C@@H]2C[C@@H](O)CN2C(=O)[C@@H](NC(=O)C2(F)CC2)C(C)(C)C)c(OCCCCCCCCNC(=O)O[C@H]2C[C@@H](C)C=C3C=C[C@H](C)[C@H](CC[C@@H]4C[C@@H](O)CC(=O)O4)[C@H]32)c1` [Compound 165, (1S,3R,7S,8S,8aR)-8-(2-((2R,4R)-4-hydroxy-6-oxotetrahydro-2H-pyran-2-yl)ethyl)-3,7-dimethyl-1,2,3,7,8,8a-hexahydronaphthalen-1-yl (8-(2-(((2S,4R)-1-((S)-2-(1-fluorocyclopropane-1-carboxamido)-3,3-dimethylbutanoyl)-4-hydroxypyrrolidine-2-carboxamido)methyl)-5-(4-methylthiazol-5-yl)phenoxy)octyl)carbamate], the half-maximal degradation concentration (DC50) is less than 50 nM.

For `Cc1ncsc1-c1ccc(CNC(=O)[C@@H]2C[C@@H](O)CN2C(=O)[C@@H](NC(=O)C2(F)CC2)C(C)(C)C)c(OCCCCCCCCCNC(=O)O[C@H]2C[C@@H](C)C=C3C=C[C@H](C)[C@H](CC[C@@H]4C[C@@H](O)CC(=O)O4)[C@H]32)c1` [Compound 166, (1S,3R,7S,8S,8aR)-8-(2-((2R,4R)-4-hydroxy-6-oxotetrahydro-2H-pyran-2-yl)ethyl)-3,7-dimethyl-1,2,3,7,8,8a-hexahydronaphthalen-1-yl (9-(2-(((2S,4R)-1-((S)-2-(1-fluorocyclopropane-1-carboxamido)-3,3-dimethylbutanoyl)-4-hydroxypyrrolidine-2-carboxamido)methyl)-5-(4-methylthiazol-5-yl)phenoxy)nonyl)carbamate], the half-maximal degradation concentration (DC50) was less than 50 nM.

Turning to `Cc1ncsc1-c1ccc(CNC(=O)[C@@H]2C[C@@H](O)CN2C(=O)[C@@H](NC(=O)C2(F)CC2)C(C)(C)C)c(OCCCCCCCCCCNC(=O)O[C@H]2C[C@@H](C)C=C3C=C[C@H](C)[C@H](CC[C@@H]4C[C@@H](O)CC(=O)O4)[C@H]32)c1` [Compound 167, (1S,3R,7S,8S,8aR)-8-(2-((2R,4R)-4-hydroxy-6-oxotetrahydro-2H-pyran-2-yl)ethyl)-3,7-dimethyl-1,2,3,7,8,8a-hexahydronaphthalen-1-yl (10-(2-(((2S,4R)-1-((S)-2-(1-fluorocyclopropane-1-carboxamido)-3,3-dimethylbutanoyl)-4-hydroxypyrrolidine-2-carboxamido)methyl)-5-(4-methylthiazol-5-yl)phenoxy)decyl)carbamate], the DC50 is less than 50 nM.

With `Cc1ncsc1-c1ccc(CNC(=O)[C@H]2C[C@H](O)CN2C(=O)[C@H](NC(=O)C2(F)CC2)C(C)(C)C)c(OCC(=O)N2CCC(CCCNC(=O)O[C@H]3C[C@@H](C)C=C4C=C[C@H](C)[C@H](CC[C@@H]5C[C@@H](O)CC(=O)O5)[C@H]43)CC2)c1` [Compound 168, (1S,3R,7S,8S,8aR)-8-(2-((2R,4R)-4-hydroxy-6-oxotetrahydro-2H-pyran-2-yl)ethyl)-3,7-dimethyl-1,2,3,7,8,8a-hexahydronaphthalen-1-yl (3-(1-(2-(2-(((2R,4S)-1-((R)-2-(1-fluorocyclopropane-1-carboxamido)-3,3-dimethylbutanoyl)-4-hydroxypyrrolidine-2-carboxamido)methyl)-5-(4-methylthiazol-5-yl)phenoxy)acetyl)piperidin-4-yl)propyl)carbamate], the DC50 is less than 50 nM.

Consider `Cc1ncsc1-c1ccc(CNC(=O)[C@@H]2C[C@@H](O)CN2C(=O)[C@@H](NC(=O)C2(F)CC2)C(C)(C)C)c(OCCc2cn(CCCNC(=O)O[C@@H]3C[C@H](C)C=C4C=C[C@@H](C)[C@@H](CC[C@@H]5C[C@@H](O)CC(=O)O5)[C@@H]43)nn2)c1` [Compound 169, (1R,3S,7R,8R,8aS)-8-(2-((2R,4R)-4-hydroxy-6-oxotetrahydro-2H-pyran-2-yl)ethyl)-3,7-dimethyl-1,2,3,7,8,8a-hexahydronaphthalen-1-yl (3-(4-(2-(2-(((2S,4R)-1-((S)-2-(1-fluorocyclopropane-1-carboxamido)-3,3-dimethylbutanoyl)-4-hydroxypyrrolidine-2-carboxamido)methyl)-5-(4-methylthiazol-5-yl)phenoxy)ethyl)-1H-1,2,3-triazol-1-yl)propyl)carbamate], for which the DC50 is less than 50 nM.

The record behind these values is patent publication US12479840B2, “HMG-CoA reductase degradation inducing compound” (Uppthera, priority 2020, dated 2025).
